Experimental data as given in patent publication US20260217697A1, “COMPOUNDS COMPRISING HETEROARYL RINGS AND COMPOSITIONS AND METHODS THEREOF” (lonGen Therapeutics Co., Ltd., priority 2022, published 2026).

Target: T1, hTRPV3 (Homo sapiens, UniProt Q8NET8)
T1 construct: The commercially available plasmid with the full-length cDNA of hTRPV3 (791 aa) (NM_001258205.2); host or cells: HEK293T
T1 sequence (Q8NET8 1-791 isoform Q8NET8-2): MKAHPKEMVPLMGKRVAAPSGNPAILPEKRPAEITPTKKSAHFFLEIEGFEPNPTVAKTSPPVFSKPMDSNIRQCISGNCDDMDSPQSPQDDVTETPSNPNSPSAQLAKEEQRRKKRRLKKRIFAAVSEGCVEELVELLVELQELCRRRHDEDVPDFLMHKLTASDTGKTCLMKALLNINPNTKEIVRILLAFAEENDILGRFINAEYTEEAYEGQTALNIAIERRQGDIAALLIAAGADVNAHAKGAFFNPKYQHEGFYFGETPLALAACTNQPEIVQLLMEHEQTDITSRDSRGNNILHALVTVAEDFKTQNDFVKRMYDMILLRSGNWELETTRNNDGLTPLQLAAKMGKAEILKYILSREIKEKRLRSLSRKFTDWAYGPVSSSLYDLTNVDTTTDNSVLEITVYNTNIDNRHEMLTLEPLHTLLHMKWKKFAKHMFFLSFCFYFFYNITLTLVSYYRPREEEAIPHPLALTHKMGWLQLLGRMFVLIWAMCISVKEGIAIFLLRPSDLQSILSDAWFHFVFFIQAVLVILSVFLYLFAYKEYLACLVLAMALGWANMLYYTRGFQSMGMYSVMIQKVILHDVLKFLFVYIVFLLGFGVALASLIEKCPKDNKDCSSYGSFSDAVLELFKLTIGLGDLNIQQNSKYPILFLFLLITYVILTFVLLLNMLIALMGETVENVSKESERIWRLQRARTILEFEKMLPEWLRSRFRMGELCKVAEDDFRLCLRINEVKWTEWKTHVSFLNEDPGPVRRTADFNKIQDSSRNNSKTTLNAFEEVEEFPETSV
Test: Whole-cell patch-clamp recording of hTRPV3 current in transfected HEK293T cells (2-APB induced)
Format: cell-based
Settings: current induced by 300 μM 2-APB, compounds tested up to 10 μM, room temperature
Method in brief: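 IC50 comes from Hill fits, 0–100% bounds, of percent block of 2-APB-induced current, with compounds perfused at up to 10 μM. Currents elicited at +80/−80 mV (400-ms steps, 2-s interval, 0 mV hold), room temperature, symmetric NaCl/EDTA/HEPES pH 7.4 solutions. Cells: hTRPV3-transfected HEK293T, used 18 h after transfection.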

## COc1ncnc(OC)c1C(=O)Nc1nc2c(ccc3cc(C#N)ccc32)s1 [compound 71, N-(7-cyanonaphtho[1,2-d]thiazol-2-yl)-4,6-dimethoxypyrimidine-5-carboxamide]
  IC50: ≥ 10000 nM

## COc1ncnc(OC)c1C(=O)Nc1nc2c(cnc3cc(C(F)(F)F)ccc32)s1 [compound 72, 4,6-dimethoxy-N-(7-(trifluoromethyl)thiazolo[5,4-c]quinolin-2-yl)pyrimidine-5-carboxamide]
  IC50: 1000 to 10000 nM

## COc1ncnc(OC)c1C(=O)Nc1nc2c(s1)C1(CCN(S(C)(=O)=O)CC1)Oc1cc(C(F)(F)F)ccc1-2 [compound 73, 4,6-dimethoxy-N-(1′-(methylsulfonyl)-7-(trifluoromethyl)spiro[chromeno[4,3-d]thiazole-4,4′-piperidin]-2-yl)pyrimidine-5-carboxamide]
  IC50: 1000 to 10000 nM

## CCC(C)(C)C(=O)N1CC2(C1)Oc1cc(C(F)(F)F)ccc1-c1nc(NC(=O)c3c(OC)ncnc3OC)sc12 [compound 74, N-(1-(2,2-dimethylbutanoyl)-7′-(trifluoromethyl)spiro[azetidine-3,4′-chromeno[4,3-d]thiazol]-2′-yl)-4,6-dimethoxypyrimidine-5-carboxamide]
  IC50: 100 to 1000 nM

## COc1ncnc(OC)c1C(=O)Nc1nc2c(s1)C1(CN(C(=O)c3ccccc3)C1)Oc1cc(C(F)(F)F)ccc1-2 [compound 75, N-(1-benzoyl-7′-(trifluoromethyl)spiro[azetidine-3,4′-chromeno[4,3-d]thiazol]-2′-yl)-4,6-dimethoxypyrimidine-5-carboxamide]
  IC50: 100 to 1000 nM

## COc1ncnc(OC)c1C(=O)Nc1nc2c(s1)C1(CN(C(=O)c3ccco3)C1)Oc1cc(C(F)(F)F)ccc1-2 [compound 76, N-(1-(furan-2-carbonyl)-7′-(trifluoromethyl)spiro[azetidine-3,4′-chromeno[4,3-d]thiazol]-2′-yl)-4,6-dimethoxypyrimidine-5-carboxamide]
  IC50: 1000 to 10000 nM

## CCCCOC(=O)N1CC2(C1)Oc1cc(C(F)(F)F)ccc1-c1nc(NC(=O)c3c(OC)ncnc3OC)sc12 [compound 77, butyl 2′-(4,6-dimethoxypyrimidine-5-carboxamido)-7′-(trifluoromethyl)spiro[azetidine-3,4′-chromeno[4,3-d]thiazole]-1-carboxylate]
  IC50: 100 to 1000 nM

## CCOC(=O)N1CC2(C1)Oc1cc(C(F)(F)F)ccc1-c1nc(NC(=O)c3c(OC)ncnc3OC)sc12 [compound 78, ethyl 2′-(4,6-dimethoxypyrimidine-5-carboxamido)-7′-(trifluoromethyl)spiro[azetidine-3,4′-chromeno[4,3-d]thiazole]-1-carboxylate]
  IC50: 100 to 1000 nM

## CCC1(CC)Oc2cc(C(F)(F)F)ccc2-c2nc(NC(=O)c3c(OC)nc(O)nc3OC)sc21 [compound 79]
  IC50: ≥ 10000 nM

## CCC1(CC)Oc2cc(C(F)(F)F)ccc2-c2nc(NC(=O)c3c(OC)nc(N)nc3OC)sc21 [compound 80, 2-amino-N-(4,4-diethyl-7-(trifluoromethyl)-4H-chromeno[4,3-d]thiazol-2-yl)-4,6-dimethoxypyrimidine-5-carboxamide]
  IC50: ≥ 10000 nM

## C#Cc1ccc2c(c1)OC(CC)(CC)c1sc(NC(=O)c3c(OC)ncnc3OC)nc1-2 [compound 81, N-(4,4-diethyl-7-ethynyl-4H-chromeno[4,3-d]thiazol-2-yl)-4,6-dimethoxypyrimidine-5-carboxamide]
  IC50: 100 to 1000 nM

## COc1ncnc(OC)c1C(=O)Nc1nc2c(s1)CCOc1cc(C(F)(F)F)ccc1-2 [compound 82, 4,6-dimethoxy-N-(8-(trifluoromethyl)-4,5-dihydrobenzo[2,3]oxepino[4,5-d]thiazol-2-yl)pyrimidine-5-carboxamide]
  IC50: 100 to 1000 nM

## CCC1(CC)Oc2ccc(C(F)(F)F)cc2-c2nc(NC(=O)c3c(OC)ncnc3OC)sc21 [compound 83, N-(4,4-diethyl-8-(trifluoromethyl)-4H-chromeno[4,3-d]thiazol-2-yl)-4,6-dimethoxypyrimidine-5-carboxamide]
  IC50: ≥ 10000 nM

## COc1ncnc(OC)c1C(=O)Nc1nc2c(s1)Cc1cc(C(F)(F)F)ccc1-2 [compound 84, 4,6-dimethoxy-N-(6-(trifluoromethyl)-8H-indeno[1,2-d]thiazol-2-yl)pyrimidine-5-carboxamide]
  IC50: 1000 to 10000 nM

## COc1ncnc(OC)c1C(=O)Nc1nc2c(s1)C(C)(C)Nc1cc(C(F)(F)F)ccc1-2 [compound 85, N-(4,4-dimethyl-7-(trifluoromethyl)-4,5-dihydrothiazolo[5,4-c]quinolin-2-yl)-4,6-dimethoxypyrimidine-5-carboxamide]
  IC50: 1000 to 10000 nM

## COc1ncnc(OC)c1C(=O)Nc1nc2c(s1)COc1ccc(Cl)cc1-2 [compound 86, N-(8-chloro-4H-chromeno[4,3-d]thiazol-2-yl)-4,6-dimethoxypyrimidine-5-carboxamide]
  IC50: 1000 to 10000 nM

## COc1ncnc(OC)c1C(=O)Nc1nc2c(s1)C(C)(C)N(C)c1cc(C(F)(F)F)ccc1-2 [compound 87, 4,6-dimethoxy-N-(4,4,5-trimethyl-7-(trifluoromethyl)-4,5-dihydrothiazolo[5,4-c]quinolin-2-yl)pyrimidine-5-carboxamide]
  IC50: 100 to 1000 nM

## C=CCN1c2cc(C(F)(F)F)ccc2-c2nc(NC(=O)c3c(OC)ncnc3OC)sc2C1(C)C [compound 88, N-(5-allyl-4,4-dimethyl-7-(trifluoromethyl)-4,5-dihydrothiazolo[5,4-c]quinolin-2-yl)-4,6-dimethoxypyrimidine-5-carboxamide]
  IC50: 100 to 1000 nM

## CCC1(CC)Oc2cc(C(F)(F)F)ccc2-c2nc(NC(=O)c3cc(OC)nnc3Cl)sc21 [compound 89, 3-chloro-N-(4,4-diethyl-7-(trifluoromethyl)-4H-chromeno[4,3-d]thiazol-2-yl)-6-methoxypyridazine-4-carboxamide]
  IC50: ≥ 10000 nM

## CCC1(CC)Oc2cc(C(F)(F)F)ccc2-c2nc(NC(=O)c3cc(Cl)nnc3OC)sc21 [compound 90, 6-chloro-N-(4,4-diethyl-7-(trifluoromethyl)-4H-chromeno[4,3-d]thiazol-2-yl)-3-methoxypyridazine-4-carboxamide]
  IC50: 1000 to 10000 nM

## CCC1(CC)Oc2cc(C(F)(F)F)ccc2-c2nc(NC(=O)c3cc(OC)nnc3OC)sc21 [compound 91, N-(4,4-diethyl-7-(trifluoromethyl)-4H-chromeno[4,3-d]thiazol-2-yl)-3,6-dimethoxypyridazine-4-carboxamide]
  IC50: ≥ 10000 nM

## COC(=O)N1CC2(C1)Oc1cc(C(F)(F)F)ccc1-c1nc(NC(=O)c3c(OC)ncnc3OC)sc12 [compound 92, methyl 2′-(4,6-dimethoxypyrimidine-5-carboxamido)-7′-(trifluoromethyl)spiro[azetidine-3,4′-chromeno[4,3-d]thiazole]-1-carboxylate]
  IC50: 100 to 1000 nM

## CCC1(CC)Oc2cc(C(F)(F)F)ccc2-c2nc(NC(=O)c3c(C)n[nH]c3C)sc21 [compound 93, N-(4,4-diethyl-7-(trifluoromethyl)-4H-chromeno[4,3-d]thiazol-2-yl)-3,5-dimethyl-1H-pyrazole-4-carboxamide]
  IC50: 1000 to 10000 nM

## CCC1(CC)Oc2cc(C(F)(F)F)ccc2-c2nc(NC(=O)c3c[nH]nc3OC)sc21 [compound 94, N-(4,4-diethyl-7-(trifluoromethyl)-4H-chromeno[4,3-d]thiazol-2-yl)-3-methoxy-1H-pyrazole-4-carboxamide]
  IC50: ≥ 10000 nM
